The values that follow come from patent US7022710B2, “A1 adenosine receptor antagonists” (CV Therapeutics, Inc., priority 2003, dated 2006).

One assay addresses T1, human A1 AdoR (UniProt P30542).
T1 sequence (P30542 1-326): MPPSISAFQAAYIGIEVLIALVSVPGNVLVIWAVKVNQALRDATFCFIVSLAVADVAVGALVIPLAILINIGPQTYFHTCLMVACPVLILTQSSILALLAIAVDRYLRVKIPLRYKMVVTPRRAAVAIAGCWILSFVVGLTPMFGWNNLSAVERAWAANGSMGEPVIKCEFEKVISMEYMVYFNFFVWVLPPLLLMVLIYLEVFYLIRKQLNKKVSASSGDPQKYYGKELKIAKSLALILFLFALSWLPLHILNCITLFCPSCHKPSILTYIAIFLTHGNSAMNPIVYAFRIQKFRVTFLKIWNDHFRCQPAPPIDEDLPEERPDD
Briefly: Adenosine receptor radioligand binding assay, A1. To be noted: competition with 0.5–1 nM 3H-CPX, membranes of CHO-A1 or DDT1 MF-2 (hamster, endogenous A1). On the procedure:
(§1) The cDNAs for human A1, A2A, A2B or A3 AdoRs were prepared by RT-PCR from total RNA of human cells or tissues and sequenced on both strands. The expression vector containing each of these cDNAs and a second vector containing a neomycin or puromycin-resistance gene were introduced to HEK-293 or CHO cells by Lipofectin-Plus (Life Technology). Colonies were selected by growing transfected cells in the presence of neomycin or puromycin. Stably transfected cells were maintained in Dulbecco's modified Eagle's medium (DMEM) or F-12 medium with 10% fetal bovine serum, 100 μg/ml penicillin, 100 μg/ml streptomycin and appropriate concentrations of neomycin or puromycin. These stably transfected cells were referred to as HEK-“AdoR” or CHO-“AdoR” depending on the receptors that they express. The cell lines used routinely were CHO-A1, HEK-A2A, HEK-A2B.and CHO-A3 cells. In addition, hamster DDT1 MF-2 cells that express endogenous A1 AdoRs were also used to determine the binding activities of compounds for A1 AdoRs.
(§2) Monolayers of transfected cells or DDT1 MF-2 were washed with phosphate buffered saline (PBS) and harvested in a buffer containing 10 mM HEPES (pH 7.4), 10 mM EDTA and protease inhibitors. The cells were homogenized in polytron for 1 minute at setting 4 and centrifuged at 29000 g for 15 minutes at 4° C. The cell pellets were washed with a buffer containing 10 mM HEPES (pH7.4), 1 mM EDTA and protease inhibitors, and were resuspended in the same buffer supplemented with 10% sucrose. Frozen aliquots were kept at −80° C.
(§3) The affinities of compounds for A1, A2A, A2B or A3 AdoRs were determined in competition studies using radioligands such as ^3H-CPX (A1 antagonist), or ^3H-CCPA (A1 agonist), ^3H-ZM241385 (A2A antagonist) or ^3H-CGS21680 (A2A agonist), ^3H-ZM241385 (A2B antagonist) or ^125I-AB-MECA (A3 agonist) and membranes of corresponding cells. For example, to determine the affinity for A1 AdoRs, the competition assays were started by mixing 0.5–1 nM ^3H-CPX with various concentrations of test compounds and 25–100 μg membrane proteins of CHO-A1 or DDT1 MF-2 in TE buffer (50 mM Tris and 1 mM EDTA) supplemented with 1 U/ml adenosine deaminase. The assays were incubated for 60–90 minutes, stopped by filtration onto GF/B filter plates using Packard Harvester and washed four times with ice-cold TM buffer (10 mM Tris, 1 mM MgCl2, pH 7.4). The amounts of radioligands that bound to the GF/B filter plates were determined by scintillation counting. Nonspecific binding was determined in the presence of 1–10 μM of cold ligands. Bmax and KD values were calculated using GraphPad software.

The target of the next assay is T2, human A2B AdoR (Homo sapiens, UniProt P29275).
T2 construct: expressed in transfected cells; host or cells: HEK-293 (HEK-A2B), membrane preparation
T2 sequence (P29275 1-332): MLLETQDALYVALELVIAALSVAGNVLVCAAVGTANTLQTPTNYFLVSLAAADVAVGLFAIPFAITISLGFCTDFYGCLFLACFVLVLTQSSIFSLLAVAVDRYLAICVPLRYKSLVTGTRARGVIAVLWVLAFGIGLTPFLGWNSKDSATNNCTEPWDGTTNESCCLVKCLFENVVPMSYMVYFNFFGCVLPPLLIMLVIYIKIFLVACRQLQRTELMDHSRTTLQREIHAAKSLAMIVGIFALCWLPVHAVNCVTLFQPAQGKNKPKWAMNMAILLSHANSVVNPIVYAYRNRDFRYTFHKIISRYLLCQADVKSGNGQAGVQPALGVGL
Briefly: Adenosine receptor radioligand binding assay, A2B. The note with it: competition with 3H-ZM241385, HEK-A2B cell membranes. On the procedure:
as §1, §2, §3

Regarding `CCn1c(-n2cccn2)nc2c(N)nc(NCc3ccccc3)nc21` [(6-amino-9-ethyl-8-pyrazolylpurin-2-yl)benzylamine], the Ki is 0.015 µM at human A1 AdoR and 1 µM at human A2B AdoR.

“(4-{[(6-amino-9-propyl-8-pyrazolylpurin-2-yl)amino]methyl}phenyl)methan-1-ol”: the Ki worked out at 1.79 µM on human A1 AdoR and 7 µM at human A2B AdoR.

On to “(6-amino-9-propyl-8-pyrazolylpurin-2-yl)(2-phenylethyl)amine”, for which the figures for the Ki at human A1 AdoR and at human A2B AdoR were 0.113 µM and 0.5 µM, respectively.

As to “(6-amino-9-propyl-8-pyrazolylpurin-2-yl)[2-(2,5-dimethoxyphenyl)ethyl]amine”, the figures for the inhibitory constant (Ki) at human A1 AdoR and on human A2B AdoR were 0.182 µM and 1.68 µM, respectively.

As for “(6-amino-9-propyl-8-pyrazolylpurin-2-yl)[2-(2-chlorophenyl)ethyl]amine”, the values for the inhibition constant Ki on human A1 AdoR and at human A2B AdoR were 0.382 µM and 3.64 µM, respectively.

Consider “(6-amino-9-propyl-8-pyrazolylpurin-2-yl)[2-(3-fluorophenyl)ethyl]amine”, for which the results for the inhibition constant Ki on human A1 AdoR and at human A2B AdoR were 0.028 µM and 0.16 µM, respectively.

As for “(6-amino-9-propyl-8-pyrazolylpurin-2-yl)[2-(4-chlorophenyl)ethyl]amine”, the values for the Ki on human A1 AdoR and on human A2B AdoR were 1.09 µM and 5 µM, respectively.

Regarding “(6-amino-9-propyl-8-pyrazolylpurin-2-yl)[2-(4-fluorophenyl)ethyl]amine”, the Ki on human A1 AdoR amounted to 0.066 µM; at human A2B AdoR, 2.3 µM.

As to “{[3-(aminomethyl)phenyl]methyl}(6-amino-9-propyl-8-pyrazolylpurin-2-yl)amine”, the Ki on human A1 AdoR was determined as 0.408 µM; on human A2B AdoR it was 7 µM.
